Reference: patent US11453657B2 (GlaxoSmithKline Intellectual Property Development Limited, priority 2018, dated 2022)
Like-named read-outs stand apart in the source and are kept apart here.

Tested on: P. falciparum infected erythrocytes
Assay: P. falciparum growth inhibition assay ([3H]hypoxanthine incorporation)
Type: cell-based, Plasmodium falciparum
Method: P. falciparum Growth Inhibition Assay.
The sensitivity of P. falciparum infected erythrocytes to the compound was determined in duplicate using the [3H]hypoxanthine incorporation method with an inoculum of 0.5% parasitemia (ring stage) and 2% hematocrit. The parasites were grown in RPMI 1640, 25 mM HEPES and supplemented with 5% Albumax. Plates are incubated at 37° C., 5% CO2, 5% O2, 90% N2. After 24 h of incubation, [3H]hypoxanthine is added and plates are incubated for another 24 h. After that period, plates are harvested on a glass fiber filter using a TOMTEC Cell harvester 96. Filters are dried and melt on scintillator sheets and the bound radioactivity is quantified by use of a Wallac Microbeta Trilux (Model 1450 LS—Perkin Elmer). IC50s are determined using Grafit 7 program (Grafit program; Erithacus Software, Horley, Surrey, United Kingdom).
Each example compound was tested generally in accordance with the above-mentioned assay and the PfIC50 value for each compound is reported in the Table below and according to the following: […]

[1] = Plasmodium falciparum, Erythrocyte, [3H]hypoxanthine incorporation, 0.5% parasitemia, 2% hematocrit, 48 h, read-out: PfIC50 Media
[2] = [3H]hypoxanthine incorporation, 0.5% parasitemia, 2% hematocrit, 48 h, read-out: PfIC50 Media
[3] = Plasmodium falciparum, Erythrocyte, read-out: average PfIC50

SMILES	IC50 [1]	IC50 [2]	IC50 [3]
Cn1cc(CC(O)COc2ccc(C(=O)N3CC[C@H](c4ccc(F)cc4)C3)cc2)cn1 (mixture of isomers) [Example 37, ((R)-3-(4-Fluorophenyl)pyrrolidin-1-yl)(4-(2-hydroxy-3-(1-methyl-1H-pyrazol-4-yl)propoxy)phenyl)methanone]	1000 to 5000 nM		
CC(COc1ccc(C(=O)N2CC[C@H](c3ccc(F)cc3)C2)cc1)Cn1cnnn1 (single isomer, unassigned) [Example 1a]	100 to 500 nM		
CC(COc1ccc(C(=O)N2CC[C@H](c3ccc(F)cc3)C2)cc1)Cn1cnnn1 (single isomer, unassigned) [Example 1b]		< 100 nM	
O=C(c1ccc(OCC(F)Cn2cnnn2)cc1)N1CC[C@H](c2ccc(F)cc2)C1 (single isomer, unassigned) [Example 3a]	100 to 500 nM		
O=C(c1ccc(OCC(F)Cn2cnnn2)cc1)N1CC[C@H](c2ccc(F)cc2)C1 (single isomer, unassigned) [Example 3b]		< 100 nM	≤ 50 nM
CC(O)(COc1ccc(C(=O)N2CC[C@H](c3ccc(F)cc3)C2)cc1)Cn1ncnn1 (single isomer, unassigned) [Example 9a]	100 to 500 nM		
CC(O)(COc1ccc(C(=O)N2CC[C@H](c3ccc(F)cc3)C2)cc1)Cn1cnnn1 (single isomer, unassigned) [Example 10a]	1000 to 5000 nM		
O=C(c1ccc(OCC(O)Cc2cscn2)cc1)N1CC[C@H](c2ccc(F)cc2)C1 (single isomer, unassigned) [Example 35b]		100 to 500 nM	
O=C(c1ccc(OC[C@H](O)Cn2ncnn2)cc1)N1CCC(c2ccccc2F)C1 (single isomer, unassigned) [Example 40b]		100 to 500 nM	
O=C(c1ccc(OC[C@H](O)Cn2ncnn2)cc1)N1CCC(c2cccc(F)c2)C1 (single isomer, unassigned) [Example 41a]		< 100 nM	≤ 50 nM
O=C(c1ccc(OC[C@H](O)Cn2ncnn2)cc1)N1CCC(c2cccc(F)c2)C1 (single isomer, unassigned) [Example 41b]	100 to 500 nM		
O=C(c1ccc(OC[C@H](O)Cn2ncnn2)cc1)N1CCC(c2ccc(F)cc2F)C1 (single isomer, unassigned) [Example 42b]		100 to 500 nM	
N#Cc1ccc(C2CCN(C(=O)c3ccc(OC[C@H](O)Cn4ncnn4)cc3)C2)cc1 (single isomer, unassigned) [Example 43a]		100 to 500 nM	
N#Cc1ccc(C2CCN(C(=O)c3ccc(OC[C@H](O)Cn4ncnn4)cc3)C2)cc1 (single isomer, unassigned) [Example 43b]		1000 to 5000 nM	
COc1ccc(C2CCN(C(=O)c3ccc(OC[C@H](O)Cn4ncnn4)cc3)C2)cc1 (single isomer, unassigned) [Example 44a]		< 100 nM	
COc1ccc(C2CCN(C(=O)c3ccc(OC[C@H](O)Cn4ncnn4)cc3)C2)cc1 (single isomer, unassigned) [Example 44b]		500 to 1000 nM	
CC(C)(COc1ccc(C(=O)N2CC[C@H](c3ccc(F)cc3)C2)cc1)Cn1cnnn1 [Example 2, (R)-(4-(2,2-Dimethyl-3-(1H-tetrazol-1-yl)propoxy)phenyl)(3-(4-fluorophenyl)pyrrolidin-1-yl)methanone]	500 to 1000 nM		
O=C(c1ccc(OC[C@@H](O)Cn2cnnn2)cc1)N1CC[C@H](c2ccc(F)cc2)C1 [Example 6, ((R)-3-(4-Fluorophenyl)pyrrolidin-1-yl)(4-((S)-2-hydroxy-3-(1H-tetrazol-1-yl)propoxy)phenyl)methanone]	100 to 500 nM		
CC(O)(COc1ccc(C(=O)N2CC[C@H](c3ccc(F)cc3)C2)cc1)Cn1ncnn1 (stereo partly drawn) [Example 9b, ((R)-3-(4-Fluorophenyl)pyrrolidin-1-yl)(4-(2-hydroxy-2-methyl-3-(2H-tetrazol-2-yl)propoxy)phenyl)methanone]		100 to 500 nM	
CC(O)(COc1ccc(C(=O)N2CC[C@H](c3ccc(F)cc3)C2)cc1)Cn1cnnn1 (stereo partly drawn) [Example 10b, ((R)-3-(4-Fluorophenyl)pyrrolidin-1-yl)(4-(2-hydroxy-2-methyl-3-(1H-tetrazol-1-yl)propoxy)phenyl)methanone]		1000 to 5000 nM	
O=C(c1ccc(OC[C@@H](O)Cn2ncnn2)cc1)N1CC[C@@H](c2ccc(F)cc2)C1 [Example 14, ((S)-3-(4-Fluorophenyl)pyrrolidin-1-yl)(4-((S)-2-hydroxy-3-(2H-tetrazol-2-yl)propoxy)phenyl)methanone]	1000 to 5000 nM		1200 nM
O=C(c1ccc(OC[C@H](O)Cn2cnnc2)cc1)N1CC[C@H](c2ccc(F)cc2)C1 [Example 18, ((R)-3-(4-fluorophenyl)pyrrolidin-1-yl)(4-((R)-2-hydroxy-3-(4H-1,2,4-triazol-4-yl)propoxy)phenyl)methanone]	1000 to 5000 nM		
Cc1nnnn1C[C@@H](O)COc1ccc(C(=O)N2CC[C@H](c3ccc(F)cc3)C2)cc1 [Example 21, ((R)-3-(4-fluorophenyl)pyrrolidin-1-yl)(4-((R)-2-hydroxy-3-(5-methyl-1H-tetrazol-1-yl)propoxy)phenyl)methanone]	500 to 1000 nM		
Cc1nnn(C[C@@H](O)COc2ccc(C(=O)N3CC[C@H](c4ccc(F)cc4)C3)cc2)n1 [Example 22, ((R)-3-(4-fluorophenyl)pyrrolidin-1-yl)(4-((R)-2-hydroxy-3-(5-methyl-2H-tetrazol-2-yl)propoxy)phenyl)methanone]	< 100 nM		

Results, then the compound that gave them:

IC50 [1]	IC50 [2]	IC50 [3]	SMILES
< 100 nM		≤ 50 nM	O=C(c1ccc(OCC(O)Cc2cscn2)cc1)N1CC[C@H](c2ccc(F)cc2)C1 (single isomer, unassigned) [Example 35a]
< 100 nM			Cn1ccc(CC(O)COc2ccc(C(=O)N3CC[C@H](c4ccc(F)cc4)C3)cc2)n1 (single isomer, unassigned) [Example 36a]
< 100 nM		≤ 50 nM	O=C(c1ccc(OC[C@H](O)Cn2ncnn2)cc1)N1CCC(c2ccccc2F)C1 (single isomer, unassigned) [Example 40a]
< 100 nM		≤ 50 nM	O=C(c1ccc(OC[C@H](O)Cn2ncnn2)cc1)N1CCC(c2ccc(F)cc2F)C1 (single isomer, unassigned) [Example 42a]
< 100 nM		≤ 50 nM	O=C(c1ccc(OCC(F)(F)Cn2cnnn2)cc1)N1CC[C@H](c2ccc(F)cc2)C1 [Example 4, (R)-(4-(2,2-Difluoro-3-(1H-tetrazol-1-yl)propoxy)phenyl)(3-(4-fluorophenyl)-pyrrolidin-1-yl)methanone]
< 100 nM		≤ 50 nM	O=C(c1ccc(OC[C@H](O)Cn2cnnn2)cc1)N1CC[C@H](c2ccc(F)cc2)C1 [Example 5, ((R)-3-(4-Fluorophenyl)pyrrolidin-1-yl)(4-((R)-2-hydroxy-3-(1H-tetrazol-1-yl)propoxy)phenyl)methanone]
< 100 nM		≤ 50 nM	O=C(c1ccc(OC[C@H](O)Cn2ncnn2)cc1)N1CC[C@H](c2ccc(F)cc2)C1 [Example 7, ((R)-3-(4-Fluorophenyl)pyrrolidin-1-yl)(4-((R)-2-hydroxy-3-(2H-tetrazol-2-yl)propoxy)phenyl)methanone]
< 100 nM		52 nM	O=C(c1ccc(OC[C@@H](O)Cn2ncnn2)cc1)N1CC[C@H](c2ccc(F)cc2)C1 [Example 8, ((R)-3-(4-fluorophenyl)pyrrolidin-1-yl)(4-((S)-2-hydroxy-3-(2H-tetrazol-2-yl)propoxy)phenyl) methanone]
< 100 nM		≤ 50 nM	O=C(c1ccc(OC[C@H](F)Cn2ncnn2)cc1)N1CC[C@H](c2ccc(F)cc2)C1 [Example 11]
< 100 nM		≤ 50 nM	O=C(c1ccc(OC[C@@H](F)Cn2ncnn2)cc1)N1CC[C@H](c2ccc(F)cc2)C1 [Example 12]
< 100 nM		54 nM	O=C(c1ccc(OC[C@H](O)Cn2ncnn2)cc1)N1CC[C@@H](c2ccc(F)cc2)C1 [Example 13, ((S)-3-(4-Fluorophenyl)pyrrolidin-1-yl)(4-((R)-2-hydroxy-3-(2H-tetrazol-2-yl)propoxy)phenyl)methanone]
< 100 nM		≤ 50 nM	O=C(c1ccc(OC[C@H](O)Cn2cncn2)cc1)N1CC[C@H](c2ccc(F)cc2)C1 [Example 15, ((R)-3-(4-fluorophenyl)pyrrolidin-1-yl)(4-((R)-2-hydroxy-3-(1H-1,2,4-triazol-1-yl)propoxy)phenyl)methanone]
< 100 nM		≤ 50 nM	O=C(c1ccc(OC[C@H](O)Cn2nccn2)cc1)N1CC[C@H](c2ccc(F)cc2)C1 [Example 16, ((R)-3-(4-fluorophenyl)pyrrolidin-1-yl)(4-((R)-2-hydroxy-3-(2H-1,2,3-triazol-2-yl)propoxy)phenyl)methanone]
< 100 nM		≤ 50 nM	O=C(c1ccc(OC[C@H](O)Cn2ccnn2)cc1)N1CC[C@H](c2ccc(F)cc2)C1 [Example 17, ((R)-3-(4-fluorophenyl)pyrrolidin-1-yl)(4-((R)-2-hydroxy-3-(1H-1,2,3-triazol-1-yl)propoxy)phenyl)methanone]
< 100 nM		≤ 50 nM	O=C(c1ccc(OC[C@H](O)Cn2cccn2)cc1)N1CC[C@H](c2ccc(F)cc2)C1 [Example 19, ((R)-3-(4-fluorophenyl)pyrrolidin-1-yl)(4-((R)-2-hydroxy-3-(1H-pyrazol-1-yl)propoxy)phenyl)methanone]
< 100 nM			O=C(c1ccc(OC[C@H](O)Cn2ccnc2)cc1)N1CC[C@H](c2ccc(F)cc2)C1 [Example 20, ((R)-3-(4-fluorophenyl)pyrrolidin-1-yl)(4-((R)-2-hydroxy-3-(1H-imidazol-1-yl)propoxy)phenyl)methanone]
